# Where two headings read alike, the source gives them in different places.
# Assays:
# Type in all cases: cell-based
# Candida albicans (10231) = assay: Broth dilution assay, F1
# Method: (§1) Both broth dilution and agar dilution assays were used to assess the antifungal activity of the compounds of the invention. The cultures were maintained in Sabouraud dextrose broth (SDB) and diluted with […]. 2.5 l of SDB was prepared and distributed into sterile vessels as follows: 49 ml into 1 vessel, 27 ml into 3 vessels, 45 ml into 2 vessels.
# (§2) Five mg/ml concentration of each compound was prepared using DMSO as the solvent; warming and sonication were necessary to dissolve each compound completely. The compounds were then diluted in SDB according to the following protocol:
# (§3) 5. 1 ug/ml--5 ml (3)+45 ml SDB
# (§4) The compound at each concentration in SDB was then dispensed into 6 tubes each containing 4 ml […]. Controls (without any compound) were also prepared to insure that the solvent itself was not fungicidal or fungistatic.
# (§5) Cultures were grown in SDB for 24 h at 30° C. C. albicans and C. neoformans were diluted 1:10 in SDB before inoculation. Inoculation volume for yeasts was 2 drops of diluted cells per tube. The fungal cultures were homogenized before inoculation. The same volume was added, but without dilution. All tubes were incubated at room temperature on a rotating wheel. After 16 h of incubation at room temperature, the fungistatic assay was set up on agar plates. […] Yeasts were inoculated onto SDA (the corresponding agar) plates and fungi onto mycosel agar plates. These plates were then incubated at room temperature.
# [1] = system: Cryptococcus neoformans (13690); assay: Broth dilution assay, F3
# Method: as §1, §2, §3, §4, §5
# [2] = system: Epidermophyton floccosum (15693); assay: Broth dilution assay, F4
# Method: as §1, §2, §3, §4, §5
# [3] = system: Microsporum gypseum (14683); assay: Broth dilution assay, F12; details: Nannizzia gypsea
# Method: as §1, §2, §3, §4, §5
# A. flavus MF0383 = assay: Agar dilution assay; details: Aspergillus flavus, MF0383, 48 h, read-out: Minimum inhibitory concentration
# Text: (§6) For the agar dilution assay, the test panel consisted of 18 yeastlike and 3 Filamentus fungii. Four media were used. These were yeast nitrogen base dextrose (0.5% agar) (YNBDA); pH 5.5; YNBDA with pH adjusted to pH 7.5; and micrological agar (MA), pH 7.0; and Sabouraud dextrose agar, pH 5.7. The media was manufactured by Difco (Detroit, MI) and prepared according to the manufacturer's instructions.
# (§7) The test compounds were solubilized in 10% aqueous DMSO; the control drug, Nystatin, was solublized in 10% aqueous DMF. The drugs were serially diluted twofold in sterile water to yield concentrations of 1.28 mg/ml to […]. One ml of diluted drug was added to 9 ml of cooled (50° C.) molten agar in plastic petri plates to yield final drug concentrations in the agar ranging from 128 to 0.063 ug/ml. Appropriate solvent and media control plates were prepared as well, and all plates stored in the dark at 4° C. overnight. The yeast cultures, maintained in yeast maltose (YM; Difco), were transferred to fresh YM medium and incubating overnight at 37° C. with shaking at 250 rpm. After incubation each culture was diluted in sterile saline to yield concentrations of 3×10^5 to 3×10^6 cfu/ml. Isolates of aspergillis and penicillium were made on potato dextrose agar slants, and spore suspensions were made following vigorous shaking with sterile glass beads. The spore preparation were used as inocula for these fungi.
# (§8) Each prepared place was inoculated with the 21-member panel using a Denleigh multipoint inoculator (Sussex, England). The inoculator delivers approximately 1 ul to the agar surface, resulting in inoculation of from 3×10^2 to 3×10^3 cfu. The plates were incubated at 28° C. for 48 h, and the minimum inhibitory concentrations (MIC) of each drug were recorded as the lower concentration of the drug permitting no growth or growth of less than 3 cfu/spot.
# [4] = system: Aspergillus fumigatus MY4839; assay: Agar dilution assay; details: MY4839, 48 h
# Text: as §6, §7, §8
# Ca. parapsilosis MY1009 = assay: Agar dilution assay; details: MY1009, 48 h, read-out: Minimum inhibitory concentration
# Text: as §6, §7, §8
# Ca. parapsilosis MY1010 = assay: Agar dilution assay; details: Lodderomyces parapsilosis, MY1010, 48 h, read-out: Minimum inhibitory concentration
# Text: as §6, §7, §8
# [5] = system: Ca. pseudotropicalis MY1040; assay: Agar dilution assay; details: Kluyveromyces marxianus, MY1040, 48 h, read-out: Minimum inhibitory concentration
# Text: as §6, §7, §8
# Ca. stellatoidea MY1017 = assay: Agar dilution assay; details: Candida albicans, MY1017, 48 h, read-out: Minimum inhibitory concentration
# Text: as §6, §7, §8
# [6] = system: Ca. tropicalis MY1012 (Nystatin resistant isolate); assay: Agar dilution assay; details: Candida tropicalis, 48 h
# Text: as §6, §7, §8
# [7] = system: Torulopsis glabrata MY1059; assay: Agar dilution assay; details: Nakaseomyces glabratus, MY1059, 48 h, read-out: Minimum inhibitory concentration
# Text: as §6, §7, §8
# Candida = assay: Growth of Candida cultures with compound and/or SMX (FIG. 1)
structure (smiles),measurement,setting,value
"CCCCCCCCc1ccc2nc(N)nc(N)c2c1C [2,4-Diamino-5-methyl-6-n-octylquinazoline]",MFC,"Candida albicans (10231); Table 2, F1, Sabouraud Dextrose Broth pH 5.5, read-out: C Fungicidal",100 mg/L
same,MIC,"Candida albicans (10231); Table 2, F1, Sabouraud Dextrose Broth pH 5.5, read-out: S Fungistatic",10 mg/L
same,MFC,"[1]; Table 2, F3, Sabouraud Dextrose Broth pH 5.5, read-out: C Fungicidal",3 mg/L
same,MIC,"[1]; Table 2, F3, Sabouraud Dextrose Broth pH 5.5, read-out: S Fungistatic",3 mg/L
same,MFC,"[2]; Table 2, F4, Sabouraud Dextrose Broth pH 5.5, read-out: C Fungicidal",30 mg/L
same,MIC,"[2]; Table 2, F4, Sabouraud Dextrose Broth pH 5.5, read-out: S Fungistatic",1 mg/L
same,MFC,"[3]; Table 2, Sabouraud Dextrose Broth pH 5.5, read-out: C Fungicidal",100 mg/L
same,MIC,"[3]; Table 2, Sabouraud Dextrose Broth pH 5.5, read-out: S Fungistatic",30 mg/L
same,MIC,A. flavus MF0383; MA pH 7.0,64 mg/L
same,MIC,A. flavus MF0383; SDA pH 5.7,> 128 mg/L
same,MIC,A. flavus MF0383; YNBDA pH 5.5,> 128 mg/L
same,MIC,A. flavus MF0383; YNBDA pH 7.5,16 mg/L
same,MIC,"[4]; MA pH 7.0, read-out: Minimum inhibitory concentration",64 mg/L
same,MIC,"[4]; SDA pH 5.7, read-out: Minimum inhibitory concentration",> 128 mg/L
same,MIC,"[4]; YNBDA pH 5.5, read-out: Minimum inhibitory concentration",> 128 mg/L
same,MIC,"[4]; YNBDA pH 7.5, read-out: Minimum inhibitory concentration",32 mg/L
same,MIC,Ca. parapsilosis MY1009; MA pH 7.0,8 mg/L
same,MIC,Ca. parapsilosis MY1009; SDA pH 5.7,> 128 mg/L
same,MIC,Ca. parapsilosis MY1009; YNBDA pH 5.5,> 128 mg/L
same,MIC,Ca. parapsilosis MY1009; YNBDA pH 7.5,16 mg/L
same,MIC,Ca. parapsilosis MY1010; MA pH 7.0,4 mg/L
same,MIC,Ca. parapsilosis MY1010; SDA pH 5.7,> 128 mg/L
same,MIC,Ca. parapsilosis MY1010; YNBDA pH 5.5,> 128 mg/L
same,MIC,Ca. parapsilosis MY1010; YNBDA pH 7.5,8 mg/L
same,MIC,[5]; MA pH 7.0,4 mg/L
same,MIC,[5]; SDA pH 5.7,128 mg/L
same,MIC,[5]; YNBDA pH 5.5,128 mg/L
same,MIC,[5]; YNBDA pH 7.5,4 mg/L
same,MIC,Ca. stellatoidea MY1017; MA pH 7.0,16 mg/L
same,MIC,Ca. stellatoidea MY1017; SDA pH 5.7,128 mg/L
same,MIC,Ca. stellatoidea MY1017; YNBDA pH 5.5,> 128 mg/L
same,MIC,Ca. stellatoidea MY1017; YNBDA pH 7.5,16 mg/L
same,MIC,"[6]; pH 5.5, read-out: Minimum inhibitory concentration",4 mg/L
same,MIC,"[6]; pH 5.7, read-out: Minimum inhibitory concentration",2 mg/L
same,MIC,"[6]; pH 7, read-out: Minimum inhibitory concentration",2 mg/L
same,MIC,"[6]; pH 7.5, read-out: Minimum inhibitory concentration",4 mg/L
same,MIC,[7]; MA pH 7.0,16 mg/L
same,MIC,[7]; SDA pH 5.7,> 128 mg/L
same,MIC,[7]; YNBDA pH 5.5,> 128 mg/L
same,MIC,[7]; YNBDA pH 7.5,8 mg/L
same,cfu/ml after 9 h,"Candida; 10 ug compound + 100 ug SMX, after 9 h",10^2 cfu/ml
same,cfu/ml after 36 h,Candida; 10 ug compound + 100 ug SMX,zero
same,cfu/ml after 36 h,Candida; 10 ug of compound alone,10^4 cfu/ml
same,cfus after 9 h,"Candida; 100 ug of each compound (with SMX), after 9 h",no cfus
same,synergistic activity with sulfa drug,Candida; with sulfa drug (SMX in FIG. 1),synergistic activity

# From US4818753A, “Synthesis and method of use for 2, 4 diaminoquinazoline” (SRI International, priority 1987, dated 1989)
